Test results reported in publication PMC6591251, “Discovery of potent necroptosis inhibitors targeting RIPK1 kinase activity for the treatment of inflammatory disorder and cancer metastasis” (Cell Death & Disease, 2019).

Legend:
[1] = system: mouse bone marrow-derived macrophages; experiment: TLR3- and TLR4-mediated necroptosis (poly(I:C)/z-VAD, LPS/z-VAD); assay type: cell-based; settings: mouse BMDM; PK6 10 μM, PK68 100 nM; 24–30 h
Source text: In addition to TNF-induced necroptosis, it is known that TLR3 or TLR4 activation can also trigger necroptosis. We further evaluated the effects of PK6 and PK68 on TLR3- and TLR4-mediated necroptosis induced by poly(I:C)/z-VAD and LPS/z-VAD, respectively. […] To investigate the molecular mechanism of PK series-mediated necroptosis inhibition, we examined the effects of these compounds on the major steps of necroptotic signaling, including activation of RIPK1, RIPK3, and MLKL. […] It has been shown previously that RIPK3 activation leads to the formation of RIPK3 puncta during necroptosis.
Fig. 3 PK6 and PK68 block cellular activation of RIPK1, RIPK3, and MLKL upon necroptotic stimuli. a, b Bone marrow-derived macrophages from C57BL/6 mice or rat were pretreated with DMSO, PK6(10 μM), or PK68 (100 nM) for 1 h and subsequently treated with indicated stimuli for 24–30 h. Cell viability was determined by measuring ATP levels. L, LPS (20 ng/ml); P, poly(I:C) (50 μg/ml); S (100 nM); Z (10 μM). […] The distribution of RIPK3 was detected by immunofluorescence. *P < 0.05. **P < 0.01. ***P < 0.001 […]
(§1) The cell viability was analyzed by using the CellTiter-Glo Luminescent Cell Viability Assay kit following the manufacturer’s instructions (Promega). Luminescence was measured with SpectraMax i3x (Molecular Devices).

[2] = molecular target: T1, mouse RIPK1 (Mus musculus, UniProt Q60855); experiment: In vitro kinase activity assay (ADP-Glo); assay type: biochemical; settings: recombinant mouse RIPK1
T1 construct: purchased SignalChem
T1 sequence (Q60855 whole entry): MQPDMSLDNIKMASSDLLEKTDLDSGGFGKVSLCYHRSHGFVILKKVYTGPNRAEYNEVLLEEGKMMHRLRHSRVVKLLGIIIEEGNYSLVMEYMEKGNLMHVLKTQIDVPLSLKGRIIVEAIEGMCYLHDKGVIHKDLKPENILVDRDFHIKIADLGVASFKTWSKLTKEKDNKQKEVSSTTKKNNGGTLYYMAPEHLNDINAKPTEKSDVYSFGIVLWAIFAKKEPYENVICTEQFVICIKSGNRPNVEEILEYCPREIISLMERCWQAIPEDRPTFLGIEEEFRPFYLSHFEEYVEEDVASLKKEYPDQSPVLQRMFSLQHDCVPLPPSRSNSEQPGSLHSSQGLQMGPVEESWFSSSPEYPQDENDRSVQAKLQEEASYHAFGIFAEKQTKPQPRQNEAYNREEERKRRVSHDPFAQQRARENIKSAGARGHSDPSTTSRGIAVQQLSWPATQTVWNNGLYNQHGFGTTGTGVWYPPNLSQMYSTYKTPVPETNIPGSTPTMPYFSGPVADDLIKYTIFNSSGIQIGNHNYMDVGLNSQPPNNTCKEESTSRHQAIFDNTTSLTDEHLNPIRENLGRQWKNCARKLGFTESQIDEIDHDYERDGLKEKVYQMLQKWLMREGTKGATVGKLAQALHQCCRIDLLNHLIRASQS
Protocol: Having shown that PK6 and PK68 can inhibit activation of both RIPK1 and RIPK3 during TNF-mediated necroptosis, we sought to determine if PK6 and PK68 can directly target RIPK1 or and RIPK3 by performing in vitro kinase assays. Both PK6 and PK68 were able to block the kinase activities of both human RIPK1 and mouse RIPK1 in vitro (Fig. 4a and Supplementary Fig. 19).
The recombinant RIPK1 or RIPK3 protein was incubated with DMSO or the indicated compound for 15 min in the assay buffer (25 mM HEPES pH 7.2, 20 mM MgCl2, 12.5 mM MnCl2, 12.5 mM β-glycerol phosphate, 5 mM EGTA, 2 mM EDTA, and 2 mM DTT). Then, ATP (50 μM) and the substrate MBP (20 μM) were added to the reaction at room temperature for 120 min. The luminescence was measured to calculate the kinase activity after the addition of the ADP-Glo Kinase Assay kit following the manufacturer’s instructions (Promega).
Supplementary Figure 19. Both PK6 and PK68 were able to block the kinase activity of mouse RIPK1 in vitro.
In vitro kinase activity assays using recombinant mouse RIPK1 were performed. Recombinant proteins were incubated with PK6(A) and PK68(B) as indicated. Data represent mean value ±standard deviation.

[3] = system: NIH3T3-RIPK3 cells; experiment: TNF-induced necroptosis (T/S/Z); assay type: cell-based, mouse; settings: T/S/Z 24 h
Protocol: Recombinant proteins were incubated with PK6 and PK68 as indicated. […] NIH3T3-RIPK3 cells were pretreated with indicated compounds for 1 h and subsequently treated with T (40 ng/ml)/S (100 nM)/Z (20 μM) or AP20187 (100 nM) for 24 h. Cell viability was determined by measuring ATP levels. e PK6 and PK68 have no effect on MLKL dimerization-induced cell death in HeLa-MLKL (1–190) cells that stably express MLKL (1–190aa) fused to DmrB. HeLa-MLKL (1–190) cells were pretreated with indicated compounds for 1 h and subsequently treated with AP20187 (100 nM) for 24 h. Cell viability was determined by measuring ATP levels.
as §1

SMILES	TLR3- and TLR4-mediated necroptosis [1]	kinase activity of mouse RIPK1 in vitro [2]	TNF-induced necroptosis in NIH3T3-RIPK3 cells [3]
CC(=O)Nc1nc2ccc(-c3cnc(Cl)c(NC(=O)Cc4ccccc4)c3)cc2s1 [PK6, N-(5-(2-acetamidobenzo[d]thiazol-6-yl)-2-chloropyridin-3-yl)-2-phenylacetamide]	significantly blocked	able to block	inhibit
CC(=O)Nc1nc2ccc(-c3cnc(C)c(NC(=O)OC4CCCCC4)c3)cc2s1 [PK68, cyclohexyl (5-(2-acetamidobenzo[d]thiazol-6-yl)-2-methylpyridin-3-yl)carbamate]	significantly blocked	able to block	inhibit
